Measured values as given in patent US20250325491A1, “POLYVALENT MOLECULE BASED LIPID NANOPARTICLES FOR NUCLEIC ACID DELIVERY” (Bio-TRIP B.V., priority 2022, published 2025).

How the values were obtained:
[1] = Dynamic light scattering (DLS) of nanoparticles; assay type: physicochemical
Description: The hydrodynamic diameter of the formulated particles was determined by a number-weighted mean diameter provided by dynamic light scattering (DLS) using a Zetasizer Nano ZS in combination with a Malvern Zetasizer NanoSampler (Malvern Instruments, Worcestshire, UK). The size dispersity was measured as the poly dispersity index (PDI). For the DLS measurements, 100 μl of the formulated nanoparticle was diluted into 700 μl of PBS (137 mM NaCl, 2.7 mM KCl, 10 mM Na2HPO4 and 1.8 mM KH2PO4) and equilibrated at room temperature before the analysis. Each sample was measured 5 times, 10 runs of each 10 seconds, at wavelength 633 nm, without fixing the attenuator and measurement position.

[2] = siRNA retention by Quant-iT RiboGreen assay; assay type: physicochemical; settings: A2 siRNA-aNPs with variations in N/P, tri-caprylin content, cholesterol content and type of phospholipid (FIG. 13); in most cases
Description: The Quant-iT RiboGreen assay (Thermo Fisher) was used to quantify the amount of siRNA loaded inside the formulated particles. The assay was performed using a black 96-well plate. The formulation sample with a theoretical siRNA concentration of 133.3 μg/mL, was diluted 200 times in TE buffer (10 mM Tris-HCl, 1 mM, EDTA, pH 7.5 in DEPC-treated water) and with a TE buffer containing 2% Triton™ X-100, in a black 96-well plate to a total volume of 100 μl. The Triton detergent will disrupt the lipid-based nanoparticles; therefore, all siRNA (retained plus unretained) becomes accessible for the Quant-iT RiboGreen reagent. Controls of siRNA of known concentration (28.6 μg/mL) were diluted 53.3 times in both TE buffer and TE buffer containing 2% Triton in a 96-well plate to a total volume of 100 μl. Next, RiboGreen reagent was diluted 200 times with TE buffer and with TE buffer containing Triton. 100 μl of this dilution was added to each well containing sample or control to bring the total volume in the plate to 200 μl. Subsequently, the samples' fluorescence was measured on a Tecan Spark® microplate reader at an excitation wavelength of 480 nm and emission wavelength of 520 nm.
The recovery of siRNA was determined as:
The siRNA retention=recovery×entrapment.

[3] = Cryo-TEM of nanoparticles; assay type: physicochemical; settings: siRNA-aNPs containing the polyvalent material
Description: Size and shape of the nanoparticles was also assessed by cryo-transmission electron microscopy (cryo-TEM). The surface of 200-mesh lacey carbon supported copper grids (Electron Microscopy Sciences) was plasma charged for 40 seconds using a carbon coater (Cressington 208). Subsequently, 3 μl of nanoparticle sample (˜1 mg protein/ml) was pipetted on a grid and vitrified into a thin film by plunge vitrification in liquid ethane. This step was performed by using an automated robot (FEI Vitrobot Mark IV). Cryo-TEM imaging was acquired on the cryo-transmission electron microscope TITAN (Thermo Fisher), equipped with a field emission gun (FEG), a post-column Gatan imaging filter (model 2002) and a post-GIF 2 k×2 k Gatan CCD camera (model 794). The imaging was performed at 300 kV acceleration voltage in bright-field TEM mode with zero-loss energy filtering at 24,000× magnification (dose rate of 11.8 e−/Å2·s), and 1s acquisition time. Pictures and results are reported in Table S6, FIG. 7, FIG. 8, FIG. 9 (A), FIG. 15.

[4] = system: Firefly luciferase in RAW264.7 cell line transfected with the pmirGLO plasmid; assay: In vitro silencing (dose-response curve); settings: RAW 264.7 cell line; siRNA-aNPs containing the polyvalent molecule vs DLin-MC3-DMA or ALC-0315 particles (FIG. 11)
Description: The in vitro silencing experiments were performed in a RAW264.7 cell line transfected with the pmirGLO plasmid (containing Renilla luciferase and Firefly luciferase expressing gene sequences). The cells were cultured until 80% confluency in a T75 cell culture flask. The cells were detached, counted, and seeded at 10000 cells/well in a 96-well plate. After overnight resting, the cells were transfected with nanoparticles containing anti Firefly luciferase siRNA at a range of concentrations. After 48-hour incubation, the old medium was washed off with 1×PBS. Lysate phosphate buffer (Dual-Luciferase® Reporter Assay System, Promega) was added to lyse the cells. […] Subsequently, 40 μl of ONE-Glo™ reagent (Dual-Luciferase® Reporter Assay System, Promega) was added and luminescence was measured with a Tecan Spark® microplate reader at an integration time of 500 ms, and settle time of 1000 ms. Since the luminescence peak should be in the range of 550-570 nm, a luminescence scan was performed to confirm the wavelength. Next, 40 μl of Stop and Glo reagent (Dual-Luciferase® Reporter Assay System, Promega) was added to each well and the luminescence was measured again in the same way. The relative remaining Firefly luciferase luminescence was calculated. First, the Firefly luminescence was normalized with the Renilla luminescence. […]

[5] = system: RAW264.7 macrophage cells; assay: In vitro Firefly luciferase expression (mRNA transfection); assay type: cell-based; settings: 100 ng mRNA per well, 24 hours after transfection (FIG. 14)
Description: For the detection of Firefly luciferase expression in vitro, the ONE-Glo™ Luciferase Assay System (Promega) was used. RAW264.7 cells were seeded at a density of 35 k cells per well in a 96-well plate in 100 μL. After approximately 6 hours the RAW264.7 cells were transfected with 10 μL Firefly luciferase mRNA (RIBOPRO) using aNPs or LNPs at a dose of 100 ng mRNA per well. 24 hours after transfection, cell viability was determined by a CellTiter 96® AQueous One Solution Cell Proliferation assay (MTS) (Promega) assay. 10 μL reagent was added to the cells, and absorbance was measured at 495 nm after an hour of incubation (37° C., 5% CO2). Subsequently, the cells were washed three times with 1×PBS, and then 40 μL ONE-Glo™ Luciferase Assay Reagent was added to each well. After complete lysis of the cells, the cell lysates were transferred to a white flat bottom 96-well plate. Luminescence was measured using a Tecan Spark plate reader. Luciferase expression was expressed as luciferase intensity after normalization to the cell viability and subtracting background signal.

[6] = mRNA-aNPs containing the polyvalent material, in vitro experiment formulation
[7] = mRNA-aNPs containing the polyvalent material, in vivo experiment formulation
[8] = siRNA-aNPs containing A2, N/P = 6, High Cholesterol (3.37 mg)
[9] = siRNA-aNPs containing A2, N/P = 6, Low Cholesterol (0.54 mg)
[10] = siRNA-aNPs containing A2, N/P = 6, Low Triglyceride (5 mg)
[11] = siRNA-aNPs containing A2, N/P = 6, No Triglyceride
[12] = siRNA-aNPs containing A2, N/P = 6, phospholipid DMPC
[13] = siRNA-aNPs containing A2, N/P = 6, phospholipid DPPC
[14] = siRNA-aNPs containing A2, N/P = 6, phospholipid DSPC
[15] = siRNA-aNPs containing A2, N/P = 6, phospholipid POPC
[16] = siRNA-aNPs containing A2, composition as Table S3 except N/P = 3
[17] = siRNA-aNPs containing A2, composition as Table S3 except N/P = 9
[18] = siRNA-aNPs containing the polyvalent material (Table S3), SD over individual repeats

For `CCCCCCCCOC(=O)CCN(CCCN(CCCCN(CCCN(CCC(=O)OCCCCCCCC)CCC(=O)OCCCCCCCC)CCCN(CCC(=O)OCCCCCCCC)CCC(=O)OCCCCCCCC)CCCN(CCC(=O)OCCCCCCCC)CCC(=O)OCCCCCCCC)CCC(=O)OCCCCCCCC` [Example A2, G1-ACR-nC8-8], the “DLS Hydrodynamic diameter (number mean)” value [1, 6] was 53 nm, the “DLS PDI” value [1, 6] was 0.27 and the “DLS Hydrodynamic diameter (number mean)” value [1, 7] was 63 nm. The “DLS PDI” value [1, 7] was 0.08, the “DLS Hydrodynamic diameter” value [1, 8] was 103 nm and the “DLS PDI” value [1, 8] was 0.24. For the same compound, the “DLS Hydrodynamic diameter” value [1, 9] was 95 nm, the “DLS PDI” value [1, 9] was 0.07 and the “DLS Hydrodynamic diameter” value [1, 10] was 60 nm. For the same compound, the “DLS PDI” value [1, 10] was 0.08, the “DLS Hydrodynamic diameter” value [1, 11] was 122 nm and the “DLS PDI” value [1, 11] was 0.16. The “DLS Hydrodynamic diameter” value [1, 12] was 91 nm, the “DLS PDI” value [1, 12] was 0.18 and the “DLS Hydrodynamic diameter” value [1, 13] was 61 nm. For the same compound, the “DLS PDI” value [1, 13] was 0.08, the “DLS Hydrodynamic diameter” value [1, 14] was 60 nm and the “DLS PDI” value [1, 14] was 0.07. For the same compound, the “DLS Hydrodynamic diameter” value [1, 15] was 123 nm, the “DLS PDI” value [1, 15] was 0.08 and the “DLS Hydrodynamic diameter” value [1, 16] was 173 nm. The “DLS PDI” value [1, 16] was 0.79, the “DLS Hydrodynamic diameter” value [1, 17] was 62 nm and the “DLS PDI” value [1, 17] was 0.24. For the same compound, the “nanoparticle diameter, all composition variations of Table S7” value ([1]; siRNA-aNPs containing A2, in all cases) was “with diameters smaller than 200 nm are formed”, the “DLS Hydrodynamic diameter (number mean)” value [1, 18] was 57 ± 6 nm and the “DLS PDI” value [1, 18] was 0.16 ± 0.03. The “siRNA retention (Ribogreen assay)” value [2] was “high siRNA retention”, the “Cryo-TEM Diameter” value ([3]; SD over n individual particles) was 55 ± 11 nm and the “Cryo-TEM PDI” value ([3]; n individual particles) was 0.04. The “silencing potency compared with reference aNPs or LNPs (dose response curve)” value [4] was “higher potency than the reference aNPs or LNPs” and the “Luminescence intensity after Firefly luciferase mRNA transfection, compared with ALC-0315 LNP and aNP controls” value [5] was “outperform the reference LNP and aNP particles”.
